Test results: PMC11901700, “A Sweet Almond Globulin Multifunctional Peptide: Identification, In Silico Screening, Restraint Mechanisms to Keap1 and ACE, and Antihypertensive and Ferrous Transport Efficiency” (Nutrients, 2025)
“And” between values parts separate entries of the source, which are not always exact repeats. Equal values may be shown once. Read-outs that look alike come from different tables or passages of the source. Each block holds one molecule with its values, some of them ahead of it. Where no end group is shown, it is not given here.

Experiments:
[1] = Ferrous ion binding capacity (o-phenanthroline method); type: physicochemical; settings: decrease in ferrous concentration per sample concentration, mean ± standard error, at least three tests
Procedure: The ferrous ion binding capacity was determined using the o-phenanthroline method following the same procedures described by Xu et al.. By plugging the absorbance value into the equation of A = 0.3719C + 0.0002 [36], the ferrous ion concentration (C) can be calculated. The ferrous ion binding capacity (mg/g) was defined as the decrease in ferrous concentration of the reaction solution per sample concentration.

ACE (from rabbit lungs) [2] = molecular target: T1, ACE (from rabbit lungs) (Oryctolagus cuniculus, UniProt P12822); assay: ACE inhibitory ability (hippuric acid method); type: biochemical; settings: N = 3
T1 construct: ACE (0.1 U, from rabbit lungs, purity > 99.7%, CAS: 9015-82-1) was obtained from Sigma-Aldrich; purchased Sigma-Aldrich (St. Louis, MO, USA); host or cells: rabbit lung tissue
T1 sequence (P12822 34-1310): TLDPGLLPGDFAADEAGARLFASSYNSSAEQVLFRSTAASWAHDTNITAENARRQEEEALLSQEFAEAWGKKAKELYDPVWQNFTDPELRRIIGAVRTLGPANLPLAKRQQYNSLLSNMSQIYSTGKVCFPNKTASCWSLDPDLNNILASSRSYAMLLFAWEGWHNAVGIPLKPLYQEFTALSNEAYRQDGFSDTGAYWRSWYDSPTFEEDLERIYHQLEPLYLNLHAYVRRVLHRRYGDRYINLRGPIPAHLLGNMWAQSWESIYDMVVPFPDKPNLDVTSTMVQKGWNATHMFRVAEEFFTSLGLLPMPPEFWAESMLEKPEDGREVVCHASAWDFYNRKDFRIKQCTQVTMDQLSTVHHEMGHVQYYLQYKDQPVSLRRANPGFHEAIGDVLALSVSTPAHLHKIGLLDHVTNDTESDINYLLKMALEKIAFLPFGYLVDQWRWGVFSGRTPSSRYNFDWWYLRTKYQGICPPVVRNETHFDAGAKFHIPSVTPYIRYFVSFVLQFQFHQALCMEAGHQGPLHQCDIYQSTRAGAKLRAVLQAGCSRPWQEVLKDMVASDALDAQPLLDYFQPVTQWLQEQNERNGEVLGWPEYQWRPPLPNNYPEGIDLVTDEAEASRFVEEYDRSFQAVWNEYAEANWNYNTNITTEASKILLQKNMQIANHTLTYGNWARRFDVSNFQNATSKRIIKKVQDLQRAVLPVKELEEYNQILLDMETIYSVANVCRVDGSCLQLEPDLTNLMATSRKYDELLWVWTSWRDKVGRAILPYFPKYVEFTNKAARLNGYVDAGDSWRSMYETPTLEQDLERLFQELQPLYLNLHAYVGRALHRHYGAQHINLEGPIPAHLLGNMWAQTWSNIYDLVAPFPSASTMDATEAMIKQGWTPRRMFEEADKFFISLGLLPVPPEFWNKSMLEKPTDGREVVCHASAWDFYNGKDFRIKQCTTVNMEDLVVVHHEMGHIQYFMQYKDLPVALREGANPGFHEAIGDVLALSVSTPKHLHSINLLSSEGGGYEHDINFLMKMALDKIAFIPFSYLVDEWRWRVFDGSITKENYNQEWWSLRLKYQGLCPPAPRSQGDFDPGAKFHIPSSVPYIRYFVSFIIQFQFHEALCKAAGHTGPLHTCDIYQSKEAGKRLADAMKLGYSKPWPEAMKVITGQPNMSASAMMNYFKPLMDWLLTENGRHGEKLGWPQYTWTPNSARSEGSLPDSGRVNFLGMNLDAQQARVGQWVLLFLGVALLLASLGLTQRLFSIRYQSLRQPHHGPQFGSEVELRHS
Source text: The hippuric acid method was used to measure the samples’ inhibitory ability towards ACE, following the same procedures as Zheng et al.. The absorbance at 228 nm was the hippuric acid content and represented ACE activity; therefore, the inhibitory ability of samples towards ACE was defined as the percentage of reduction in the absorption at 228 nm between the control and sample groups. Moreover, the ACE inhibitory kinetic of SAGH peptides was investigated by employing a Lineweaver–Burk plot with N-hippuryl-L-histidyl-L-leucine (HHL, 0.13–1.32 mmol/L) as the substrate.
(§1) As described by Wu et al., the simulative gastric digestive fluid consisted of sodium chloride (0.18 mol/L), ultrapure water (180 mL), and 0.40 mg/mL of pepsin. The simulation intestinal digestive juice was composed of NaHCO3, ([…]), bile salt (3 g/100 mL), pancreatin (0.35 mg/mL), and 180 mL of ultrapure water. The antihypertensive and antioxidant SAGH peptides (5 mg/mL, 60 mL) were first hydrolyzed using 150 mL of simulative gastric fluid at 37 °C and 140 rpm for 90 min. The mixture was adjusted to pH 7.0, and 180 mL of the simulative intestinal hydrolysis fluid was added and stirred at 37 °C for 2 h. After boiling for 6 min, the mixture was cooled with running water to room temperature. The ACE inhibition capacity and antioxidant ability of the treated SAGH peptides were detected and compared to those of the […] SAGH peptides.

[3] = Gastrointestinal stability of SAGH peptide (simulated gastric and intestinal digestion); type: in vitro ADME; settings: peptide 5 mg/mL; simulated gastric fluid (pepsin 0.40 mg/mL) 37 °C, 140 rpm, 90 min, then pH 7.0 intestinal fluid (pancreatin 0.35 mg/mL, bile salt 3 g/100 mL) 37 °C 2 h; read-out activity
Procedure: as §1

[4] = assay not specified, cited from earlier work
Source text: Alternatively, the guanidine of Arg, imidazolyl in His, the free hydroxyl group of Ser, the cyclic amino group of Pro, and the phenolic hydroxyl group of Tyr can quickly quench free radicals, showing excellent antioxidant ability. Moreover, the sulfhydryl group in Cys or Met can inhibit free radicals’ chain reaction by chelating metal ions, which are catalysts for oxidation reactions. Therefore, the residues, including Tyr, Pro, Val, and Met, were responsible for the antioxidant activity of […]. Furthermore, the repeated amino acid sequences “GGG” can enhance the antioxidant ...

[5] = Gastrointestinal stability of peptide–ferrous chelate (ferrous solubility in simulated digestion); type: in vitro ADME
Procedure: Next, the intestinal digestive fluid was added, and digestion was continued at pH 6.8 for 2 h in the EDZF-C002 thermostatic vibrator ([…], 175 rpm).

ACE (from rabbit lungs) [6] = molecular target: T1, ACE (from rabbit lungs); design: method as in 3 sources, ref 29 = [29]; doi:10.1111/j.1365-2621.2001.tb04614.x; 29. Nielsen P.M. Petersen D. Dambmann C. Improved method for determining food protein degree of hydrolysis J. Food Sci. 2001 66 642 646 10.1111/j.1365-2621.2001.tb04614.x ||| ref 43 = [43]; PMID 38470110; doi:10.1021/acs.jafc.4c00829; 43. Martineau-Côté D. Achouri A. Karboune S. L’Hocine L. Antioxidant and Angiotensin-Converting Enzyme Inhibitory Activity of Faba Bean-Derived Peptides After In Vitro Gastrointestinal Digestion: Insi ||| ref 10 = [10]; PMID 36493485; doi:10.1016/j.foodchem.2022.135082; 10. Fadimu G.J. Gan C.Y. Olalere Q.A. Farahnaky A. Gill H. Truong T. Novel antihypertensive peptides from lupin protein hydrolysate: An in-silico identification and molecular docking studies Food Chem; settings: read-out: ACE inhibition IC50 (literature), cited from earlier work
[7] = cited from earlier work
Source text: The ACE inhibition and antioxidant activities of […] were stable during gastrointestinal digestion (Figure 3A and Table 2), which is mainly ascribed to the Pro, Val, and Met residues. […] Therefore, the Pro and Val residues of […] were mainly responsible for its gastrointestinal stability. Peptides rich in Pro and br ...

[8] = Superoxide radical scavenging activity (pyrogallol auto-oxidation method); type: physicochemical; settings: at 100 μg/mL
Procedure: (§2) As described by Wang et al. and Vásquez et al., the hydroxyl (·OH) and superoxide ( O2−· ) radicals’ scavenging activity was measured using the β-deoxyribose oxidation and pyrogallol auto-oxidation methods, respectively. The comparison was conducted when the samples were replaced by glutathione (0.1 mg/mL).

[9] = Hydroxyl radical scavenging activity (β-deoxyribose oxidation method); type: physicochemical; settings: at 100 μg/mL
Procedure: as §2

[10] = Reducing power (potassium ferricyanide method); type: physicochemical; settings: at 100 μg/mL; absorbance at 700 nm
Source text: The potassium ferricyanide method was employed to determine the reducing power of the SAGH peptides at the same conditions reported by Wang et al., where the absorbance at 700 nm represented the reducing power.

ABTS+ quenching ability = type: physicochemical; settings: at 100 μg/mL; absorbance at 734 nm; mean ± standard error
Procedure: The ABTS^+ quenching ability was determined following the same procedures described by Vásquez et al.. The same system without the sample was the control, and glutathione (0.1 mg/mL) was the comparison. The percentage of reduction in absorbance at 734 nm was defined as the ABTS^+ scavenging ability of samples.

Molecule: SGGEEAAAGP [oligopeptide identified in SAGH-D]
- Ferrous chelating capacity [1]: 18.22 mg/g and 16.14 ± 0.43 g mg/g

- IC50 (ACE (from rabbit lungs) [2]; hippuric acid method, HHL substrate, absorbance at 228 nm, read-out: ACE inhibitory activity (IC50)): 121 µM
- IC50 (ACE (from rabbit lungs) [2]; peptide 5 mg/mL, simulated gastric fluid (pepsin 0.40 mg/mL) 37 °C 90 min, then intestinal fluid (pancreatin 0.35 mg/mL, bile salt) pH 7.0, 37 °C 2 h, read-out: ACE inhibitory activity (IC50) after simulated gastrointestinal digestion): 130 µM
- stability of ACE inhibition and antioxidant activities during gastrointestinal digestion [3]: stable
Molecule: PMYGGGMV

Molecule: SPAIPLP [literature antioxidant peptide from broad bean]
- antioxidant activity (literature) ([4]; peptides from broad bean): excellent antioxidant activity

- ferrous solubility during gastric digestion ([5]; 0–90 min, simulated gastric fluid pH 1.9, 37 °C, 175 rpm, soluble ferrous by o-phenanthroline every 30 min, N = 3): relatively stable
- ferrous solubility during intestinal digestion ([5]; 91–240 min, intestinal digestive fluid pH 6.8, soluble ferrous by o-phenanthroline, p < 0.05): apparently decreased
Molecule: [Cl][Fe][Cl] [ferrous chloride, reference compound]

Molecule: LPSYVN [literature antioxidant peptide from apricot]
- antioxidant activity (literature) ([4]; peptides from apricot): excellent antioxidant activity

Molecule: GCHHY
- IC50 (ACE (from rabbit lungs) [6]; peptide from millet bran glutelin-2): 147 µM

Molecule: VIPTEPPHA [literature peptide from Faba beans]
- IC50 (ACE (from rabbit lungs) [6]; peptide from Faba beans): 260 µM
- gastrointestinal stability (literature) ([7]; peptide from Faba beans): good gastrointestinal stability

Molecule: N[C@@H](CCC(=O)N[C@@H](CS)C(=O)NCC(=O)O)C(=O)O [Glutathione, glutathione, reference compound]
- Superoxide Radical Scavenging Ability (%) Before Gastrointestinal Digestion [8]: 90.52 ± 4.97 a %
- ·OH Scavenging Activity (%) Before Gastrointestinal Digestion [9]: 95.56 ± 1.38 a,b %
- Reducing Power Before Gastrointestinal Digestion [10]: 0.675 ± 0.019 a
- ABTS+ Scavenging Activity (%) Before Gastrointestinal Digestion (ABTS+ quenching ability): 79.25 ± 1.67 b %

Molecule: PIIAKMY [literature peptide from millet glutelin-2]
- gastrointestinal stability (literature) ([7]; peptide from millet glutelin-2): good gastrointestinal stability

Molecule: VSRRFIYYL [literature antioxidant peptide from broad bean]
- antioxidant activity (literature) ([4]; peptides from broad bean): excellent antioxidant activity

Molecule: YLSF [literature antioxidant peptide from apricot]
- antioxidant activity (literature) ([4]; peptides from apricot): excellent antioxidant activity
